Measured values published in PMC4269550, “Lead Optimization of a Pyrazole Sulfonamide Series of Trypanosoma bruceiN-Myristoyltransferase Inhibitors: Identification and Evaluation of CNS Penetrant Compounds as Potential Treatments for Stage 2 Human African Trypanosomiasis” (Journal of Medicinal Chemistry, 2014).
pEC50: −log10 of the molar value. Where “and” joins values, the source holds several entries; their conditions need not be identical. Identical values can stand only once.

Legend:
[1] = In vitro metabolite identification with mouse microsomes; type: in vitro ADME
[2] = Rat hepatic portal vein study; type: in vivo; conditions: male Sprague–Dawley rat, 3 mg/kg orally
Experimental: aIC50 values are shown as mean values of two or more determinations. bCompounds with Hill slopes […]
Rat hepatic portal vein study protocol.
10mL/kg; Dose vehicle: 5% DMSO; 40% PEG400; 55% distilled water) to male Sprague-Dawley rats (n=7). A single rat was placed under terminal anaesthesia with isofluorane at 15 and 30 minutes, 1, 2, 4, 6 and 8 hours post-dose and a blood sample taken from the hepatic portal vein and the heart, each mixed with two volumes of distilled water. After suitable sample preparation, the concentration of compound 33 in all blood samples was determined by UPLC/MS/MS using a Quattro Premier XE (Waters, USA). The hepatic portal vein and cardiac blood concentration time profile is presented in Figure S2. Pharmacokinetic parameters were derived from the blood concentration time profiles using PKsolutions software v 2.0 (Summit Research Services, USA).

[3] = Intrinsic clearance (Cli), mouse liver microsomes; type: in vitro ADME
[4] = system: T. b. brucei, BSF427, VSG118; assay: Cell viability assay, trypanosome; type: cell-based
Mouse brain penetration = type: in vivo; conditions: female, NMRI, brain and blood, intravenous, 2 mg free base/kg, read-out: B:B (brain:blood ratio in mouse)
in vitro = type: cell-based, human; conditions: human; read-out: MRC-5 EC50
P-glycoprotein = assay: Rat brain penetration study +/- GF120918; conditions: in vivo
T. b. brucei S427 = assay: Stage 1 HAT mouse efficacy model, T. b. brucei S427; type: in vivo; conditions: b.i.d. po, mouse
[5] = system: T. b. rhodesiense STIB900; assay: Stage 1 HAT mouse efficacy model, T. b. rhodesiense STIB900; type: in vivo; conditions: b.i.d. po for 4 days
Mouse pharmacokinetics = type: in vivo; conditions: female, NMRI, whole blood, mouse
Experimental: Test compound was dosed as a bolus solution intravenously at 3 mg free base/kg (dose volume, 5 mL/kg; dose vehicle, saline or 5% DMSO; 40% PEG400; 55% saline) to female NMRI mice (n = 3) or dosed orally by gavage as a solution at 10 and/or 50 mg free base/kg (dose volume, 5 mL/kg; dose vehicle, 5% DMSO; 95% distilled water or 5% DMSO; 40% PEG400; 55% distilled water) to female NMRI mice (n = 3/dose level). Female NMRI mice were chosen as these represent the sex and strain used for the stage 1 and stage 2 HAT efficacy models. Blood samples were taken from each mouse at 2 (IV only), 5 (IV only), 15, and 30 min, 1, 2, 4, 6, 8, and 24 (po only) hours postdose and mixed with two volumes of distilled water. After suitable sample preparation, the concentration of test compound in blood was determined by UPLC-MS/MS using a Quattro Premier XE (Waters, USA). Pharmacokinetic parameters were derived from the mean blood concentration time curve using PKsolutions software v 2.0 (Summit Research Services, USA).

[6] = Maximum tolerated dose in mice; conditions: mouse, in vivo, po
[7] = Dose calculations for in vivo efficacy studies (brain concentration, brain free fraction)
Experimental: isofluorane. A blood sample was taken by cardiac puncture into two volumes of distilled water and the brain removed. After suitable sample preparation, the concentration of 1 in blood and brain was determined by UPLC/MS/MS using a Quattro Premier XE (Waters, USA). For each rat, the concentration in brain (ng/g) was divided by the concentration in blood (ng/mL) to give a brain:blood (B:B) ratio. The mean value obtained was quoted. A higher B:B ratio in animals pre-treated with GF120918 is indicative of a Pgp substrate.
Dose calculations for in vivo efficacy studies.
Property Compound 40 Compound 46 Compound 42
Oral Dose 50mg/kg 50mg/kg 50mg/kg

T. b. brucei GVR35 [8] = assay: Acute mouse model of T. b. brucei GVR35; type: in vivo
T. b. brucei GVR35 [9] = type: in vivo
Excerpt: NMRI mice used in the experiment were purchased from Harlan, UK. Mice were maintained under standard temperature/lighting conditions and given food and water ad libitum. The trypanosomes used in this study were of the cloned stabilate T. b. brucei GVR35, originally derived from trypanosomes isolated from a wildebeest in the Serengeti in 1966.[31] By 13 days postinfection, parasites entered the CNS.[32] If treatment is delayed until 21 days after infection, successful cure is therefore dependent on the ability of the compound to penetrate through the blood–brain barrier.[33] This model is widely used to evaluate the efficacy of new compounds for treatment against stage 2 HAT.[34]
Cryopreserved T. b. brucei GVR35 trypomastigotes were diluted to ∼5 × 10^4 cells/mL in 20 mM Hanks Balanced Salt Solution with glucose, and 0.2 mL of that dilution was used for infection (∼1 × 10^4 cells/mL per animal). All animals in the groups were intraperitoneally infected (ip) on day 0. After infection, parasitaemia was monitored by examination of tail blood smears. On day 21, post infection animals were randomly allocated to five mice per group. Infected animals were dosed with one of the following: diaminazene diaceturate (ip), 40 mg/kg once only as a HAT stage 1 control (early stage tyrypanocide to clear the parasites in the systemic circulation and in tissues other than CNS); Melasoprol (ip), 10 mg/kg once daily for 5 days as a positive control for HAT stage 2; […]. One group of five mice was an untreated control group. The dose solutions were prepared daily, using 5% DMSO:40% PEG400:55% Milli-Q water for compound (i.e., 40) and 10% DMSO:90% peanut oil for control drugs. To measure the response to treatment, parasitaemia was monitored twice per week until day 50. After day 50, the mice were checked only once per week until day 180 post treatment. Mice surviving to the end of experiment and blood smear aparasitaemic were considered cured.

Compound: Cc1nn(C)c(C)c1N(C)S(=O)(=O)c1c(Cl)cc(CCCN2CCN(C)CC2)cc1Cl [compound 33]
- % Parent remaining (t = 15 min) ([1]; 5µM, 15 min at 37°C, mouse liver microsomes): 6%
- sulfonamide N-dealkylation on incubation with mouse microsomes ([1]; words): N-dealkylated sulfonamide as the predominant metabolite
- hepatic extraction of the parent [2]: almost total hepatic extraction
- Cli (mouse) ([3]; mouse liver microsomes): 7.4 mL min^–1 g^–1
- Cli ([3]; mouse microsomes): 7.4 mL/min/g

Compound: Cc1nn(C)c(C)c1NS(=O)(=O)c1ccc(-c2ccnc(N3CCNCC3)c2)cc1 [compound 55]
- pEC50 ([4]; Trypanosoma brucei): 8.40
- Kp (Mouse brain penetration): 0.1
- pEC50 (in vitro): 5.85

Compound: Cc1nn(C)c(C)c1NS(=O)(=O)c1c(Cl)cc(-c2ccnc(N3CCNCC3)c2)cc1Cl [compound 1, 2,6-Dichloro-4-(2-piperazin-1-yl-pyridin-4-yl)-N-(1,3,5-trimethyl-1H-pyrazol-4-yl)-benzenesulfonamide]
- P-glycoprotein substrate (P-glycoprotein): substrate for P-glycoprotein
- stage 1 HAT minimal curative dose, T. b. brucei S427 (T. b. brucei S427): 12.5 mg/kg
- stage 1 HAT minimal curative dose, T. b. rhodesiense STIB900 [5]: 50 mg/kg
- AUC(0-t) (Mouse pharmacokinetics; 10 mg/kg po, read-out: AUC0–8 (converted)): 6530 ng·h/mL
- Cli (mouse) ([3]; Table S1, unit not given): 0.6
- Cli (mouse) ([3]; mouse liver microsomes): < 1.0 mL min^–1 g^–1

Compound: Cc1nn(C)c(C)c1N(C(F)F)S(=O)(=O)c1c(Cl)cc(CCCCC2CCN(C)CC2)cc1Cl [compound 46]
- stage 1 HAT minimal curative dose, T. b. brucei S427 (T. b. brucei S427): 6 mg/kg
- MTD at 1 day [6]: 50 mg/kg
- ~EC99 ([4]; T. brucei): ~2 nM and ~1.1 ng/mL
- oral dose needed to deliver stage 2 cures (Dose required) ([7]; b.i.d., calculated to keep brain free concentration above T. brucei EC99): 15 mg/kg
- fraction unbound ([7]; mouse, in vivo): 0.01
- Conc in brain ([7]; oral dose 50mg/kg): 935 ng/g
- Free brain conc ([7]; oral dose 50mg/kg): 9.4 ng/g
- Cmax (Mouse pharmacokinetics; oral dose 50mg/kg): 708 ng/mL
- minimum curative dose, acute model of T. b. brucei GVR35 (T. b. brucei GVR35 [8]; b.i.d. po for 4 days): 25 mg/kg
- reduction in efficacy, T. b. brucei GVR35 compared to S427 (T. b. brucei GVR35 [8]; in vivo): ~4 fold
- toxicity in infected mice in stage 2 model (T. b. brucei GVR35 [9]; dosed at the MTD b.i.d. po for 5 days, mice affected): 2/5
- toxicity in stage 2 model (T. b. brucei GVR35 [9]; extended 50 mg/kg dose regimen): significant toxicity
- cures in stage 2 model (T. b. brucei GVR35 [9]; extended regimens: 25 mg/kg b.i.d. for 10 days, 50 mg/kg b.i.d. po for 8 days): no cures
